A value given as a limit tells only on which side of the number the result lay.

In the test the target is C-X-C chemokine receptor type 4 (Homo sapiens, UniProt P61073). Description: Antagonist activity at wild-type human CXCR4 expressed in COS7 cells co-expressing chimeric galphai assessed as inhibition of CXCL12-induced [3H]inositol-phosphate accumulation measured after 90 mins in presence of Myo-[2-3H]-inositol by scintillation proximity assay. Type of test: functional, cell-based, COS-7. Background: Scintillation proximity formats need no separation of bound from free tracer.
C-X-C chemokine receptor type 4, sequence (P61073 whole entry): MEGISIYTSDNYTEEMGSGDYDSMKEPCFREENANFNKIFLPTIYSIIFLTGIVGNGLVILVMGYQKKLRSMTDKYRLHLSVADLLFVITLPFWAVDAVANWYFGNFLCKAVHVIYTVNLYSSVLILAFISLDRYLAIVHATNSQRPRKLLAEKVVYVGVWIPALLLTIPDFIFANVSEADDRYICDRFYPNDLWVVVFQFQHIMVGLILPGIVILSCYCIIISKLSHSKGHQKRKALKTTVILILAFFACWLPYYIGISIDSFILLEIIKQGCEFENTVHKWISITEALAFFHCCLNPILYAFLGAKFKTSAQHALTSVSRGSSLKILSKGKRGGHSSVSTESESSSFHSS

In the case of `N=C(N)NCCCC[C@H]1C(=O)N(CCc2ccc3ccccc3c2)C[C@@H]2SC[C@H](CCNC(=N)N)C(=O)N21`, the EC50 is, setting by setting: (read-out: EC50) above 100 µM; (read-out: pEC50 (converted)) below 100 µM.

Take `N=C(N)NCCC[C@H]1C(=O)N(CCc2ccc3ccccc3c2)C[C@@H]2SC[C@H](CCNC(=N)N)C(=O)N21`: the EC50 by setting is: (read-out: EC50) above 100 µM; (read-out: pEC50 (converted)) below 100 µM.

As for `N=C(N)NCCCC1CSC2CN(Cc3cccc4ccccc34)C(=O)[C@H](CCCNC(=N)N)N2C1=O` (mixture of isomers), the EC50 (read-out: EC50) was above 100 µM.

For `N=C(N)NCCCC[C@H]1C(=O)N(CCc2ccc3ccccc3c2)C[C@H]2SC[C@@H](CCNC(=N)N)C(=O)N21`, the EC50 was above 100 µM (read-out: EC50) and below 100 µM (read-out: pEC50 (converted)).

With `N=C(N)NCCCC1CSC2CN(Cc3ccc4ccccc4c3Br)C(=O)[C@H](CCCNC(=N)N)N2C1=O` (mixture of isomers), the EC50 (read-out: EC50) is 61 µM.

As for `N=C(N)NCCCC[C@H]1C(=O)N(CCc2ccc3ccccc3c2)C[C@H]2SC[C@@H](CCCNC(=N)N)C(=O)N21`, the EC50 (read-out: EC50) is above 100 µM and the EC50 (read-out: pEC50 (converted)) is below 100 µM.

`N=C(N)NCCCC[C@H]1CS[C@H]2CN(CCc3ccc4ccccc4c3)C(=O)[C@H](CCCNC(=N)N)N2C1=O`: the EC50 runs as follows: (read-out: EC50) above 100 µM; (read-out: pEC50 (converted)) below 100 µM.

Turning to `N=C(N)NCCCC[C@@H]1CS[C@@H]2CN(CCc3ccc4ccccc4c3)C(=O)[C@H](CCCNC(=N)N)N2C1=O`, the EC50 by setting is: (read-out: EC50) above 100 µM; (read-out: pEC50 (converted)) below 100 µM.

In the case of `N=C(N)NCCCC[C@H]1C(=O)N(CCc2ccc3ccccc3c2)C[C@@H]2SC[C@H](CCCNC(=N)N)C(=O)N21`, the EC50 (read-out: EC50) was above 100 µM.

With `N=C(N)NCCC[C@H]1C(=O)N(CCc2ccc3ccccc3c2)C[C@H]2SC[C@@H](CCNC(=N)N)C(=O)N21`, the EC50 (read-out: EC50) is above 100 µM.

Turning to `N=C(N)NCCCC1CSC2CN(Cc3ccc4ccccc4c3)C(=O)[C@H](CCCNC(=N)N)N2C1=O` (mixture of isomers), the EC50 by setting is: (read-out: EC50) above 100 µM; (read-out: pEC50 (converted)) below 100 µM.

Source of the values: ChEMBL document CHEMBL3872260, “Influence of chain length on the activity of tripeptidomimetic antagonists for CXC chemokine receptor 4 (CXCR4)” (Bioorg Med Chem, 2017).
